These results are taken from patent US8722894B2, “1,3-disubstituted-4-phenyl-1H-pyridin-2-ones” (Janssen Pharmaceuticals, Inc., priority 2007, dated 2014).

One series concerns the target T1, human mGluR2 receptor (Homo sapiens, UniProt Q14416).
T1 construct: expressed in transfected cells; host or cells: CHO cells
As to the kind of experiment: [35S]GTPγS binding assay (GTPγS-PAM), membranes from cells transfected with the human mGluR2 receptor. Format: biochemical. Conditions: in presence of mGluR2 agonist glutamate at a predetermined EC25 concentration; CHO-cell membranes; averages of duplicate values of 11-concentration response curves; pEC50 = -logEC50; read-out: GTPgS - hR2 PAM pEC50 (converted). On the procedure: The [^35S]GTPγS binding assay is a functional membrane-based assay used to study G-protein coupled receptor (GPCR) function whereby incorporation of a non-hydrolysable form of GTP, [^35S]GTPγS (guanosine 5′-triphosphate, labelled with […] ^35S), is measured. The G-protein α subunit catalyzes the exchange of guanosine 5′-diphosphate (GDP) by guanosine triphosphate (GTP) and on activation of the GPCR by an agonist, [^35S]GTPγS, becomes incorporated and cannot be cleaved to continue the exchange cycle (Harper (1998) Current Protocols in Pharmacology 2.6.1-10, John Wiley & Sons, Inc.). […] Here we describe the use of the [^35S]GTPγS binding assay using membranes from cells transfected with the human mGluR2 receptor and adapted from Schaffhauser et al ((2003) Molecular Pharmacology 4:798-810) for the detection of the positive allosteric modulation (PAM) properties of the compounds of this invention.
CHO-cells were cultured to pre-confluence and stimulated with 5 mM butyrate for 24 hours, prior to washing in PBS, and then collection by scraping in homogenisation buffer (50 mM Tris-HCl buffer, pH 7.4, 4° C.). Cell lysates were homogenized briefly (15 s) using an ultra-turrax homogenizer. The homogenate was centrifuged at 23 500×g for 10 minutes and the supernatant discarded. The pellet was resuspended in 5 mM Tris-HCl, pH 7.4 and centrifuged again (30 000×g, 20 min, 4° C.). The final pellet was resuspended in 50 mM HEPES, pH 7.4 and stored at −80° C. in appropriate aliquots before use. Protein concentration was determined by the Bradford method (Bio-Rad, USA) with bovine serum albumin as standard.
Measurement of mGluR2 positive allosteric modulatory activity of test compounds in membranes containing human mGluR2 was performed using frozen membranes that were thawed and briefly homogenised prior to pre-incubation in 96-well microplates (15 μg/assay well, 30 minutes, 30° C.) in assay buffer (50 mM HEPES pH 7.4, 100 mM NaCl, 3 mM MgCl2, 50 μM GDP, 10 μg/ml saponin,) with increasing concentrations of positive allosteric modulator (from 0.3 nM to 50 μM) and either a minimal pre-determined concentration of glutamate (PAM assay), or no added glutamate. For the PAM assay, membranes were pre-incubated with glutamate at EC25 concentration, i.e. a concentration that gives 25% of the maximal response glutamate, and is in accordance to published data (Pin et al. (1999) Eur. J. Pharmacol. 375:277-294). […] Filters were then air-dried, and 40 μl of liquid scintillation cocktail (Microscint-O) was added to each well, and membrane-bound [^35S]GTPγS was measured in a 96-well scintillation plate reader (Top-Count, Perkin-Elmer, USA). Non-specific [^35S]GTPγS binding is determined in the presence of cold 10 μM GTP. […]

SMILES strings stand for the structures.

T1 sequence (Q14416 19-872): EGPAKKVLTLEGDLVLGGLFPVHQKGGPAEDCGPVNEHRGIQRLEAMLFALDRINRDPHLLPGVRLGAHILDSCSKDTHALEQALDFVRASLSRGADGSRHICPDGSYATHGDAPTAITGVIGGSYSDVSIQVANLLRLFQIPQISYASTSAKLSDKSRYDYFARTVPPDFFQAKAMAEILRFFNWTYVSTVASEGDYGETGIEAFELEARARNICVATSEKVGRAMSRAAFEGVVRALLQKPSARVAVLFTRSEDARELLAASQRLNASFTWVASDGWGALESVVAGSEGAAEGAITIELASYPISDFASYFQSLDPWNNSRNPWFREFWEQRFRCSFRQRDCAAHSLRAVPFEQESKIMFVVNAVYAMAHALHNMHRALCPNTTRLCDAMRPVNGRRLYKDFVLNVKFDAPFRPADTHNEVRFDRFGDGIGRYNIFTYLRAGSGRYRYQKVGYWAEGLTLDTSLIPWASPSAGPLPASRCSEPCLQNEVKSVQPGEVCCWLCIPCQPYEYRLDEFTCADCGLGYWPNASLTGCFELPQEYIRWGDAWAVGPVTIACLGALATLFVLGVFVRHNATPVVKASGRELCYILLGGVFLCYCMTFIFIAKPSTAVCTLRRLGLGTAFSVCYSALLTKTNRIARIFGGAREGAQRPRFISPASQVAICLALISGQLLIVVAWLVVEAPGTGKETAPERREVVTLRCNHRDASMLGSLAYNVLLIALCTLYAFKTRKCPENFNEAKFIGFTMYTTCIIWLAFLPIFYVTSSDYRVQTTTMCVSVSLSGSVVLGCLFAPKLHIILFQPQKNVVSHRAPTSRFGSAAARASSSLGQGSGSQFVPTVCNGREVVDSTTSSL

Compound `O=c1c(Cl)c(-c2ccc(OC3CCOCC3)c(Cl)c2)ccn1CCC1CC1` [Compound 4] came in with a melting point of 154 °C. Also, at human mGluR2 receptor, the EC50 is 275 nM.
In the case of `O=c1c(Cl)c(-c2ccc(NC3CCOCC3)c(C(F)(F)F)c2)ccn1CC1CC1` [Compound 5], the melting point was 173 °C. For the same compound, at human mGluR2 receptor, the EC50 is 813 nM.
As to `O=c1c(Cl)c(-c2ccc(NC3CCOCC3)c(Cl)c2)ccn1CC1CC1` [Compound 6], the melting point worked out at 231 °C. Moreover, the EC50 at human mGluR2 receptor is 575 nM.
For `CCCCn1ccc(-c2ccc(NC3CCC(C)(O)CC3)c(Cl)c2)c(Cl)c1=O` (centres unmarked) [Compound 7] the same measures were 227.4 °C and 39.8 nM.
